The values below come from patent US11395847B2, “Acylated GLP-1/GLP-2 dual agonists” (Zealand Pharma A/S, priority 2016, dated 2022).

Molecules are shown by their SMILES. Like-named read-outs stand apart in the source and are kept apart here. Where a SMILES comes first, the peptide text is derived from it.

Data set [1] is described as follows: Chemical stability (RP-HPLC normalized purity after incubation at 40° C.). Type of data set: physicochemical. To be noted: pH 7, 40° C., 14-day incubation, 0.2 mg/ml, normalized purity (area-%). The protocol: Samples of each test peptide were dissolved in MILLIQ™ water, and the pH of the solution was adjusted to pH 6, 7, 7.5 or 9 using either HCl or NaOH. The final peptide concentration was 0.2 mg/ml. Samples were placed in glass vials and incubated at 40° C. The samples were analyzed by RP-HPLC on a C18 column with gradient elution using an acetonitrile/TFA/water eluent system. The area-percentage (area-%) of the main peak after incubation time T=t (relative to time T=0) was determined by UV spectroscopy at 220 nm.
The purity was first determined as follows: Purity(area-%)=(area of main peak/total area of all peaks)×100.
The purity was then normalized between time points by setting purity at time 0 (T=0) to 100 for each pH value for a given peptide, as follows: Normalized area-% at time t(T=t)=[area-%(T=t)/area-%(T=0)]×100.
The chemical stability assessment results after 14-day incubation (in the form of normalized purity values) are summarized in Table 4.

Data set [2] is described as follows: Solubility assessment (turbidity absorbance at 325 nm). Type of data set: physicochemical. The protocol: A stock solution of the test peptide (2 mg/ml; determined from the weighed amount of peptide) in demineralized water adjusted to pH 2.5 with HCl was prepared, and aliquots were diluted 1:1 in 100 mM acetate buffer (pH 4.0 and pH 5.0), 100 mM histidine buffer (pH 6.0 and pH 7.0) and 100 mM phosphate buffer (pH 6.0, pH 7.0 and pH 7.5), respectively, and loaded in a standard flat-bottom, non-sterile 96-well UV Microplate. The absorbance of samples (single samples, n=1) at 280 and 325 nm was measured in an absorbance-based plate reader, which was preheated to ambient temperature (typically 25° C.).

As for `CC[C@H](C)[C@H](NC(=O)[C@H](Cc1ccccc1)NC(=O)[C@H](CC(=O)O)NC(=O)[C@H](CCCCNC(=O)COCCOCCNC(=O)[C@H](CCCCN)NC(=O)[C@H](CCC(=O)O)NC(=O)[C@H](CCCCN)NC(=O)CC[C@H](NC(=O)CCCCCCCCCCCCCCCCCCC(=O)O)C(=O)O)NC(=O)[C@H](C)NC(=O)[C@H](C)NC(=O)[C@H](CCCCN)NC(=O)[C@H](C)NC(=O)[C@H](CC(=O)O)NC(=O)[C@H](CC(C)C)NC(=O)[C@@H](NC(=O)[C@@H](NC(=O)[C@H](C)NC(=O)[C@H](CC(C)C)NC(=O)[C@H](CCC(=O)O)NC(=O)[C@H](CO)NC(=O)[C@@H](NC(=O)[C@H](Cc1ccccc1)NC(=O)[C@H](CO)NC(=O)CNC(=O)[C@H](CCC(=O)O)NC(=O)C(C)(C)NC(=O)[C@@H](N)Cc1c[nH]cn1)[C@@H](C)O)[C@@H](C)O)[C@@H](C)CC)C(=O)N[C@@H](C)C(=O)N[C@@H](Cc1c[nH]c2ccccc12)C(=O)N[C@@H](CC(C)C)C(=O)N[C@H](C(=O)N[C@@H](CCC(=O)O)C(=O)N[C@@H](Cc1c[nH]cn1)C(=O)N[C@@H](CCCCN)C(=O)N[C@H](C(=O)N[C@H](C(=O)N[C@@H](CC(=O)O)C(=O)O)[C@@H](C)O)[C@@H](C)CC)[C@@H](C)CC` [Compound 68] (HELM PEPTIDE1{H.[Aib].E.G.S.F.T.S.E.L.A.T.I.L.D.A.K.A.A.K.D.F.I.A.W.L.I.E.H.K.I.T.D}|PEPTIDE2{[O=C(O)CCCCCCCCCCCCCCCCCCC(=O)[*:2]].[gGlu].K.E.K.[O=C(COCCOCCN[*:1])[*:2]]}$PEPTIDE1,PEPTIDE2,20:R3-6:R2$$$V2.0), the “pH 7 normalized stability” value in data set [1] is reported as “A (>90% normalised stability)”.

Take `CC[C@H](C)[C@H](NC(=O)[C@H](Cc1ccccc1)NC(=O)[C@H](CC(=O)O)NC(=O)[C@H](CCCNC(=N)N)NC(=O)[C@H](C)NC(=O)[C@H](C)NC(=O)[C@H](CCC(N)=O)NC(=O)[C@H](CCCCNC(=O)CC[C@H](NC(=O)CCCCCCCCCCCCCCCCC(=O)O)C(=O)O)NC(=O)[C@H](CC(=O)O)NC(=O)[C@H](CC(C)C)NC(=O)[C@@H](NC(=O)[C@@H](NC(=O)[C@H](C)NC(=O)[C@H](CC(C)C)NC(=O)[C@H](CCC(=O)O)NC(=O)[C@H](CO)NC(=O)[C@H](CO)NC(=O)[C@H](Cc1ccccc1)NC(=O)[C@@H](NC(=O)CNC(=O)[C@H](CCC(=O)O)NC(=O)C(C)(C)NC(=O)[C@@H](N)Cc1c[nH]cn1)[C@@H](C)O)[C@@H](C)O)[C@@H](C)CC)C(=O)N[C@@H](C)C(=O)N[C@@H](Cc1c[nH]c2ccccc12)C(=O)N[C@@H](CC(C)C)C(=O)N[C@H](C(=O)N[C@@H](CCC(=O)O)C(=O)N[C@@H](Cc1c[nH]cn1)C(=O)N[C@@H](CCCCN)C(=O)N[C@H](C(=O)N[C@H](C(=O)N[C@@H](CC(=O)O)C(=O)O)[C@@H](C)O)[C@@H](C)CC)[C@@H](C)CC` [Compound 20] (HELM PEPTIDE1{H.[Aib].E.G.T.F.S.S.E.L.A.T.I.L.D.K.Q.A.A.R.D.F.I.A.W.L.I.E.H.K.I.T.D}|PEPTIDE2{[O=C(O)CCCCCCCCCCCCCCCCC(=O)[*:2]].[gGlu]}$PEPTIDE1,PEPTIDE2,16:R3-2:R2$$$V2.0): the solubility in data set [2] (100 mM acetate buffer pH 4.0, ambient temperature, read-out: Solubility Acetate buffer pH 4) was under 1000 µg/mL; in data set [2] (100 mM acetate buffer pH 5.0, ambient temperature, read-out: Solubility Acetate buffer pH 5) it was under 1000 µg/mL; in data set [2] (100 mM histidine buffer pH 6.0, ambient temperature, read-out: Solubility Histidine buffer pH 6), at least 1000 µg/mL; in data set [2] (100 mM histidine buffer pH 7.0, ambient temperature, read-out: Solubility Histidine buffer pH 7), at least 1000 µg/mL; in data set [2] (100 mM phosphate buffer pH 6.0, ambient temperature, read-out: Solubility Phosphate buffer pH 6) it was at least 1000 µg/mL; in data set [2] (100 mM phosphate buffer pH 7.0, ambient temperature, read-out: Solubility Phosphate buffer pH 7), at least 1000 µg/mL. Further, the solubility in data set [2] (100 mM phosphate buffer pH 7.5, ambient temperature, read-out: Solubility Phosphate buffer pH 7.5) is at least 1000 µg/mL.

One may read the solubility as the concentration that dissolves in the medium under given conditions.
